In US20030194409A1, “Conjugate heat shock protein-binding peptides” (priority 2002, published 2003):
Where two headings read alike, the source gives them in different places. Where a SMILES comes first, the peptide text is derived from it.

Columns and labels:
[1] = 17- versus 19-allylamino derivative of herbimycin A; cited from earlier work
EG7 cells = assay: EG7 tumor cell challenge after immunization; format: in vivo, C57BL/6 mice; settings: peptide alone, without TiterMax or hsp70, eight mice per group
Procedure: C57BL/6 mice, 8-10 weeks old, were immunized intradermally with one of the following (eight mice in each group): (a)5 μl TiterMax and 5 μg OVA peptide; (b) 15 μg hsp70 and 5 μg OVA peptide; (c) 5 μl TiterMax and […] (OVA-BiP); (d) 15 μg hsp70 and 12 μg OVA-BiP; (e) control (four animals only in this group); (f) 5 μg OVA peptide; or (g) 12 μg OVA-BiP. The mice then were injected with 4×10^6 EG7 cells. Tumor size was evaluated over time by measuring two diameters, the greatest diameter and the diameter perpendicular to the greatest diameter, and then calculating the average diameter. The results are shown in FIGS. 8A-G (corresponding to groups a-g, as set forth above).

[2] = tested on: OVA-peptide pulsed EL4 cells; assay: 51Cr release assay with effector cells from immunized mice; format: cell-based, C57BL/6 mice; settings: mice immunized once or twice; OVA-primed EL-4 target cells
Procedure: Preparation of hsp70 and/or peptide for use in immunization. Approximately 15 μg hsp70 and 12 μg OVA-BiP were mixed, on ice, to a final volume of 10 μL in Buffer Y (to produce a final concentration of 21.5 μM hsp70, 0.5 mM OVA-BiP, 20 mM HEPES pH 7.0, 150 mM KCl, 10 MM (NH4)2SO4, 2 mM MgCl2 and 2 mM MgADP, pH 7.0). The mixture was incubated for 30 minutes at 37° C. and was used for in vivo immunizations. Similar incubations were carried out with (i) 5 μl TiterMax adjuvant (Vaxcell, Norcross, Ga.) and 12 μg OVA-BiP (ii) 5 μl TiterMax and 5 μg OVA peptide or (iii) 12 μg OVA-BiP alone.
Preparation of cells for chromium release assay. […]
Chromium release assay. […] Supernatants were harvested and radioactivitiy released by cytotoxic activity was measured in a gamma counter. The percent specific lysis was calculated as 100×[(cpm release by CTL−cpm spontaneously released)/(cpm maximal release−cpm spontaneously released)]. Maximal release was determined by adding 1% NP-40 to lyse all cells. Spontaneous release of all target in the absence of effector cells (measured in a culture of target cells (in the absence of effector cells) maintained in parallel for the duration of the assay) was less than 20% of the maximal release.

[3] = molecular target: T1, gp96 in the presence of herbimycin A (Mus musculus, UniProt P08113); assay: Affinity panning of phage display heptapeptide library on gp96 in the presence of herbimycin A; format: binding; settings: TWEEN 20
T1 construct: The mouse cDNA encoding mature gp96 (i.e., wherein the endoplasmic reticulum signal peptide has been removed) was incorporated into the pET 11 a expression vector; made in house; host or cells: Escherichia coli BL21 (pET11gp96)
Procedure: Preparation of a gp96 expression vector. The mouse cDNA encoding mature gp96 (i.e., wherein the endoplasmic reticulum signal peptide has been removed) was incorporated into the pET 11 a expression vector (Novagen) as follows. Gp96 cDNA insert was prepared by polymerase chain reaction (PCR) of a pRc/CMV clone containing the cDNA using the following oligonucleotide primers: […]
Expression of gp96. pET11gp96 was transformed into BL21 Escherichia coli cells, and plated on LB plates containing ampicillin (50 μg/ml). One of the resulting colonies was used to inoculate a 20 ml overnight culture of 2×TY medium containing ampicillin (150 μg/ml). The following day, the resulting culture was spun down and the harvested bacteria were resuspended in 1 ml of fresh medium. Two one liter cultures were then each inoculated with 0.5 ml of the harvested cells and allowed to grow at 37° C. until the optical density, measured at 600 nm, was 0.5. Then, IPTG was added to a concentration of 1 mM and the cells were cultured for another 3 hours before being harvested by centrifugation. The resulting cell pellet was resuspended in 20 ml of 50 mM HEPES pH 7.5, 50 mM KCl, 5 mM MgAcetate, 20% sucrose and 1 mM PMSF. Cell extracts were prepared by pressure shearing in a French Press. The lysates were then spun at 100,000×g for 1.5 hours and the supernatant, which constituted crude gp96 extract, was collected.
Purification of gp96. The following steps were all performed at 4° C. A 12.5 cm×3.2 cm column of DE52 resin (Whatman) was equilibrated in a solution of 50 mM MOPS pH 7.4, 10 mM NaCl, 5 mM MgAcetate (hereafter, “Buffer A”). The crude gp96 extract was diluted 2-fold and immediately loaded onto the column at a flow rate of 2 ml/min. Elution from the column was achieved using a gradient of a solution of 50 mM MOPS pH 7.4, 1M NaCl, 5 mM MgAcetate (hereafter, “Buffer B”) from 0% to 100% Buffer B over 1000 ml. The elution profile was examined by subjecting fractions collected from the column to SDS-PAGE analysis. Fractions containing gp96 were pooled and diluted 2-fold with cold water, and were immediately run onto the next column (see below).
A 10 cm×1 cm column of hydroxyapatite (BioRad) was washed with 100 ml 0.5 M K2HPO4, 50 mM KCl pH 7.4 and then equilibrated with 10 mM K2HPO4, 50 mM KCl pH 7.4. The pooled diluted fractions from the DE52 column were loaded onto this column at a flow rate of 1 ml/min. The gp96 protein was eluted in a gradient of 10-500 mM K2HPO4 over 800 ml. Fractions containing gp96 were pooled and loaded onto the phenylsepharose column described below.
A 9 cm×3 cm column of phenylsepharose (Pharmacia) was equilibrated with 500 mM NaCl, 50 mM MOPS pH 7.4. The pooled fractions containing gp96 from the hydroxyapatite were loaded onto this column at 1 ml/min and the gp96 was eluted in a gradient of 500-0 mM NaCl over 800 ml. The gp96 containing fractions collected from the column were identified by SDS-PAGE, pooled, and concentrated.
The gp96 was then loaded onto a Hi Load 26/60 Superdex-200 column (Pharmacia) equilibrated with 100 mM NaCl, 5 mM MgAcetate, 50 mM MOPS pH 7.5, 3 ml fractions were collected, and the fractions containing the most pure gp96 (as identified by SDS PAGE using a 12 percent reducing gel) and pooled. To the pooled fractions, glycerol was added to 10% (v/v), and then the fractions were concentrated to 21 mg/ml on a Centricon-50 concentrator (Amicon), frozen using liquid nitrogen, and stored at −80° C.
Affinity panning. The Ph.D. Phage Display Library Kit (New England BioLabs, Beverly, Mass.), was used for affinity panning. For each panning experiment, a well of a 96-well polystyrene microtiter plate (each well having a 6 mm diameter) was filled with 150 μl of a solution of 200 μg/ml of gp96 in 0.1 M NaHCO3 pH 8.3. If herbimycin A was to be included in the experiment, 1 μl of 10 mg/ml herbimycin A (GIBCO) in DMSO was added to each well, corresponding to a 50-fold molar excess relative to gp96. […]

[4] = molecular target: T1, gp96 in the presence of herbimycin A; settings: expected frequency for comparison with % actual, cited from earlier work
[5] = Table XII, gp96 and herbimycin A, binding buffer without calcium: 20 mM HEPES pH 7.5, 100 mM KCl, 1 mM DTT, 1 mM MgAcetate, 42 phage-expressed peptides sequenced
[6] = Table XIV, gp96 in the presence of herbimycin A, binding buffer with ATP: 20 mM HEPES pH 7.5, 100 mM KCl, 1 mM CaCl2, 1 mM MgAcetate, 1 mM ATP
[7] = Table XVI, binding buffer with AMP-PNP instead of ATP: 20 mM HEPES pH 7.5, 100 mM KCl, 1 mM CaCl2, 1 mM MgAcetate, 1 mM AMP-PNP

T1 sequence (P08113 22-802): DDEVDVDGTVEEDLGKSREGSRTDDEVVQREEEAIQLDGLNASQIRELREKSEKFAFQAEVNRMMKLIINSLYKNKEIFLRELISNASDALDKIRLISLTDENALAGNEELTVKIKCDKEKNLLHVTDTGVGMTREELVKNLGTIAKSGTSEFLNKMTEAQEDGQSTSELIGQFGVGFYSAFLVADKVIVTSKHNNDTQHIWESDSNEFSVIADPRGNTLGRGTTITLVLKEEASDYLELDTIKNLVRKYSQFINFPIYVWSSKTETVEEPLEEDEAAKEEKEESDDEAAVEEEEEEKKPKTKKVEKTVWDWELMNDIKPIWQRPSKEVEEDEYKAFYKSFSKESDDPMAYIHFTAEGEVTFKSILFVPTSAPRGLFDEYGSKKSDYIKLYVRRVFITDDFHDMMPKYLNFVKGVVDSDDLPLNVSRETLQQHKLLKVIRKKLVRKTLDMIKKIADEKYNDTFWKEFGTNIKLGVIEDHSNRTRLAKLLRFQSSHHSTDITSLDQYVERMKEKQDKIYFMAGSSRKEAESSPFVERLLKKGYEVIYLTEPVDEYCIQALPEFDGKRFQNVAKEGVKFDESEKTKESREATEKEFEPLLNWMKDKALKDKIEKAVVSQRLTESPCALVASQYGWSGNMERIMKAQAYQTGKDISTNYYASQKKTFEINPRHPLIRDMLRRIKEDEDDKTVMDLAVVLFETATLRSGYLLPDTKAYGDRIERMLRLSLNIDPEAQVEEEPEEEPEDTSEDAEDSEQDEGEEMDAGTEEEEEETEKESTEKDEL

Compound: 17-allylamino herbimycin
- activity [1]: more active than 19-allylamino herbimycin

Compound: Ser Ile Ile Asn Phe Glu Lys Leu (SIINFEKL; printed: Ser Ile Ile Asn Phe Glu Lys Leu) [OVA peptide]
- tumor-free animals (EG7 cells): no animals were tumor-free

Compound: CC[C@H](C)[C@H](NC(=O)[C@@H](NC(=O)[C@@H](N)CO)[C@@H](C)CC)C(=O)N[C@@H](CC(N)=O)C(=O)N[C@@H](Cc1ccccc1)C(=O)N[C@@H](CCC(=O)O)C(=O)N[C@@H](CCCCN)C(=O)N[C@@H](CC(C)C)C(=O)NCC(=O)N[C@@H](CO)C(=O)NCC(=O)N[C@@H](Cc1c[nH]cn1)C(=O)N[C@@H](Cc1c[nH]c2ccccc12)C(=O)N[C@@H](CC(=O)O)C(=O)N[C@@H](Cc1ccccc1)C(=O)N[C@@H](C)C(=O)N[C@@H](Cc1c[nH]c2ccccc12)C(=O)N1CCC[C@H]1C(=O)N[C@@H](Cc1c[nH]c2ccccc12)C(=O)O [OVA-BiP] (H-SIINFEKLGSGHWDFAWPW-OH)
- OVA-specific cytotoxic immune response [2]: significant anti-OVA immune response

Compound: N[C@@H](CS)C(=O)O [Cys]
- % actual (amino acid frequency in sequenced gp96-binding phage-expressed heptapeptides) [3, 5]: 0%
- % actual (amino acid frequency in sequenced gp96-binding phage-expressed heptapeptides) [3, 6]: 0%
- % actual (amino acid frequency in sequenced gp96-binding phage-expressed heptapeptides) [3, 7]: 0%
- % expected (amino acid frequency) ([4]; Table XII): 0.8%
- % expected (amino acid frequency) ([4]; Table XIV): 0.8%
- % expected (amino acid frequency) ([4]; Table XVI): 0.8%

Compound: NCCCC[C@H](N)C(=O)O [Lys]
- % actual (amino acid frequency in sequenced gp96-binding phage-expressed heptapeptides) [3, 5]: 3.74%
- % actual (amino acid frequency in sequenced gp96-binding phage-expressed heptapeptides) [3, 6]: 0%
- % actual (amino acid frequency in sequenced gp96-binding phage-expressed heptapeptides) [3, 7]: 2.85%
- % expected (amino acid frequency) ([4]; Table XII): 1.7%
- % expected (amino acid frequency) ([4]; Table XIV): 1.7%
- % expected (amino acid frequency) ([4]; Table XVI): 1.7%
